Measurements taken from publication PMC10681007, “Targeted Degradation of XIAP is Sufficient and Specific to Induce Apoptosis in MYCN-overexpressing High-risk Neuroblastoma” (Cancer Research Communications, 2023).

Assays:
Type in all cases: cell-based, Human
THLE3 and HS5 = experiment: Toxicity and tolerability in noncancerous normal tissue-derived cell lines; settings: THLE3 and HS5 versus neuroblastoma cells
Description: (§1) Cell viability was measured in real time using RealTime-Glo MT Cell Viability Assay as according to manufacturer's instructions from Promega. Cells were seeded at 1 × 10^4 cells per well and treated with a range of doses of indicated antagonists, followed by continuous bioluminescence reading every 24 hours for 3 days using luminescent plate reader, Varioskan (SkanIT software). IC50 was determined using GraphPad Prism software.
To evaluate this, noncancerous normal tissue-derived cell lines THLE3 and HS5 were utilized to evaluate toxicity and tolerability. […] On the basis of their overall potency and specificity toward neuroblastoma cells over noncancerous normal cells, A4, B3, and BV6 were selected as the more efficacious antagonists to be studied further in subsequent experiments (Fig. 2A).

NB1 = experiment: RealTime-Glo MT cell viability assay; settings: Homo sapiens
Description: as §1
(§2) To determine their efficacy in neuroblastoma, a panel of neuroblastoma cell lines including neuroblastoma patient-derived cell lines and noncancerous normal tissue-derived cell lines were treated with increasing doses of each antagonist (0–100 µmol/L), followed by real-time measurement of cell viability every 24 for 72 hours.

[1] = test system: NBL-07-0317 patient-derived neuroblastoma cells; experiment: RealTime-Glo MT cell viability assay; settings: Homo sapiens, Neuroblastoma cell
Description: as §1, §2

SK-N-SH = experiment: RealTime-Glo MT cell viability assay; settings: Homo sapiens
Description: as §1, §2

[2] = test system: NBL27-0218A patient-derived neuroblastoma cells; experiment: RealTime-Glo MT cell viability assay; settings: Homo sapiens, Neuroblastoma cell
Description: as §1, §2

CHP212 = experiment: RealTime-Glo MT cell viability assay; settings: Homo sapiens, CHP-212
Description: as §1, §2

KELLY = experiment: RealTime-Glo MT cell viability assay; settings: Homo sapiens
Description: as §1, §2

BE(2)-C = experiment: RealTime-Glo MT cell viability assay; settings: Homo sapiens
Description: as §1, §2

[3] = test system: NBL16-0118 patient-derived neuroblastoma cells; experiment: RealTime-Glo MT cell viability assay; settings: Homo sapiens, Neuroblastoma cell
Description: as §1, §2

NLF = experiment: RealTime-Glo MT cell viability assay; settings: Homo sapiens
Description: as §1, §2

IMR-32 = experiment: RealTime-Glo MT cell viability assay; settings: Homo sapiens
Description: as §1, §2

[4] = test system: NBL01-1116 patient-derived neuroblastoma cells; experiment: RealTime-Glo MT cell viability assay; settings: Homo sapiens, Neuroblastoma cell
Description: as §1, §2

SK-N-AS = experiment: RealTime-Glo MT cell viability assay; settings: Homo sapiens
Description: as §1, §2

[5] = test system: neuroblastoma cells across the panel of cell lines; experiment: Cell viability, IC50 range across the panel; settings: Homo sapiens, Neuroblastoma cell; range over cell lines, doses 0–100 µmol/L, viability every 24 for 72 hours; read-out: IC50 against neuroblastoma cells across the panel of cell lines
Description: as §1, with “([…]” for “(SkanIT”, “software. To determine their efficacy in neuroblastoma, a panel of neuroblastoma cell lines including neuroblastoma patient-derived cell lines and noncancerous normal tissue-derived cell lines were treated with increasing doses of each antagonist (0-100 μmol/L), followed by real-time measurement of cell viability every 24 for 72 hours. […] Supplementary Table S2; Fig. 2A). […] Fig. 2A).” for “software.”

THLE3 (liver origin) = experiment: RealTime-Glo MT cell viability assay, noncancerous normal cells; settings: Homo sapiens
Description: as §1, §2
(§3) To evaluate this, noncancerous normal tissue-derived cell lines THLE3 and HS5 were utilized to evaluate toxicity and tolerability.

HS5 (bone marrow origin) = experiment: as above; settings: Homo sapiens
Description: as §1, §2, §3

SMILES: CN[C@@H](C)C(=O)N[C@H](C(=O)N1CCC[C@H]1C(=O)Nc1sc(-c2ncco2)nc1-c1ccccc1)C1CCCCC1 [CUDC-427]
- toxicity to noncancerous cells (THLE3 and HS5): more toxic toward noncancerous cells than neuroblastoma cells
- IC50 (NB1; NB1, 24 hours): 42 µM
- IC50 (NB1; NB1, 48 hours): 38.1 µM
- IC50 (NB1; NB1, 72 hours): 36.9 µM
- IC50 ([1]; NBL-07-0317, 24 hours): 33.5 µM
- IC50 ([1]; NBL-07-0317, 48 hours): 33 µM
- IC50 ([1]; NBL-07-0317, 72 hours): 32 µM
- IC50 (SK-N-SH; 24 hours): 54.1 µM
- IC50 (SK-N-SH; 48 hours): 40 µM
- IC50 (SK-N-SH; 72 hours): 33.5 µM
- IC50 ([2]; 24 hours): 32.8 µM
- IC50 ([2]; 48 hours): 30.4 µM
- IC50 ([2]; 72 hours): 28.4 µM
- IC50 (CHP212; CHP212, 24 hours): 57.6 µM
- IC50 (CHP212; CHP212, 48 hours): 50.1 µM
- IC50 (CHP212; CHP212, 72 hours): 50 µM
- IC50 (KELLY; 24 hours): 32.5 µM
- IC50 (KELLY; 48 hours): 29.5 µM
- IC50 (KELLY; 72 hours): 26 µM
- IC50 (BE(2)-C; 24 hours): 64.9 µM
- IC50 (BE(2)-C; 48 hours): 60.9 µM
- IC50 (BE(2)-C; 72 hours): 55.6 µM
- IC50 ([3]; NBL16-0118, 24 hours): 35 µM
- IC50 ([3]; NBL16-0118, 48 hours): 32 µM
- IC50 ([3]; NBL16-0118, 72 hours): 30 µM
- IC50 (NLF; 24 hours): 45 µM
- IC50 (NLF; 48 hours): 38.6 µM
- IC50 (NLF; 72 hours): 30.2 µM
- IC50 (IMR-32; IMR-32, 24 hours): 59 µM
- IC50 (IMR-32; IMR-32, 48 hours): 46.5 µM
- IC50 (IMR-32; IMR-32, 72 hours): 40.6 µM
- IC50 ([4]; NBL01-1116, 24 hours): 40 µM
- IC50 ([4]; NBL01-1116, 48 hours): 38 µM
- IC50 ([4]; NBL01-1116, 72 hours): 38 µM
- IC50 (SK-N-AS; 24 hours): 33.2 µM
- IC50 (SK-N-AS; 48 hours): 26.9 µM
- IC50 (SK-N-AS; 72 hours): 22.3 µM
- IC50 [5]: 20 to 60 µM
- IC50 (THLE3 (liver origin); THLE3, 24 hours): 40.2 µM
- IC50 (THLE3 (liver origin); THLE3, 48 hours): 28.8 µM
- IC50 (THLE3 (liver origin); THLE3, 72 hours): 29.5 µM
- IC50 (HS5 (bone marrow origin); HS5, 24 hours): 29.9 µM
- IC50 (HS5 (bone marrow origin); HS5, 48 hours): 26.5 µM
- IC50 (HS5 (bone marrow origin); HS5, 72 hours): 23.8 µM

SMILES: CN[C@@H](C)C(=O)N[C@H]1CN(C(=O)CC(C)C)CC[C@H]2CC[C@@H](C(=O)NC(c3ccccc3)c3ccccc3)N2C1=O [Debio 1143]
- toxicity to noncancerous cells (THLE3 and HS5): more toxic toward noncancerous cells than neuroblastoma cells
- IC50 (NB1; NB1, 24 hours): > 100 µM
- IC50 (NB1; NB1, 48 hours): > 100 µM
- IC50 (NB1; NB1, 72 hours): 64.5 µM
- IC50 ([1]; NBL-07-0317, 24 hours): > 100 µM
- IC50 ([1]; NBL-07-0317, 48 hours): 93 µM
- IC50 ([1]; NBL-07-0317, 72 hours): > 100 µM
- IC50 (SK-N-SH; 24 hours): > 100 µM
- IC50 (SK-N-SH; 48 hours): > 100 µM
- IC50 (SK-N-SH; 72 hours): 35.5 µM
- IC50 ([2]; 24 hours): > 100 µM
- IC50 ([2]; 48 hours): > 100 µM
- IC50 ([2]; 72 hours): 50 µM
- IC50 (CHP212; CHP212, 24 hours): > 100 µM
- IC50 (CHP212; CHP212, 48 hours): > 100 µM
- IC50 (CHP212; CHP212, 72 hours): > 100 µM
- IC50 (KELLY; 24 hours): 91 µM
- IC50 (KELLY; 48 hours): 73.5 µM
- IC50 (KELLY; 72 hours): > 100 µM
- IC50 (BE(2)-C; 24 hours): > 100 µM
- IC50 (BE(2)-C; 48 hours): > 100 µM
- IC50 (BE(2)-C; 72 hours): > 100 µM
- IC50 ([3]; NBL16-0118, 24 hours): > 100 µM
- IC50 ([3]; NBL16-0118, 48 hours): > 100 µM
- IC50 ([3]; NBL16-0118, 72 hours): > 100 µM
- IC50 (NLF; 24 hours): > 100 µM
- IC50 (NLF; 48 hours): 78.5 µM
- IC50 (NLF; 72 hours): > 100 µM
- IC50 (IMR-32; IMR-32, 24 hours): > 100 µM
- IC50 (IMR-32; IMR-32, 48 hours): > 100 µM
- IC50 (IMR-32; IMR-32, 72 hours): 64.5 µM
- IC50 ([4]; NBL01-1116, 24 hours): > 100 µM
- IC50 ([4]; NBL01-1116, 48 hours): > 100 µM
- IC50 ([4]; NBL01-1116, 72 hours): > 100 µM
- IC50 (SK-N-AS; 24 hours): 68.5 µM
- IC50 (SK-N-AS; 48 hours): 50.5 µM
- IC50 (SK-N-AS; 72 hours): 85 µM
- IC50 (THLE3 (liver origin); THLE3, 24 hours): > 100 µM
- IC50 (THLE3 (liver origin); THLE3, 48 hours): 73 µM
- IC50 (THLE3 (liver origin); THLE3, 72 hours): 80 µM
- IC50 (HS5 (bone marrow origin); HS5, 24 hours): > 100 µM
- IC50 (HS5 (bone marrow origin); HS5, 48 hours): 90 µM
- IC50 (HS5 (bone marrow origin); HS5, 72 hours): > 100 µM
